{"source": "paper PMC6396489", "about": "(Cell Communication and Signaling : CCS, 2019)", "key": {"Shp1": {"target": "T1, Shp1 (Homo sapiens, UniProt P29350)", "T1 construct": "the C-terminal truncated form of human Shp1 cDNA (His-Shp1; amino acids 1–529); made in house; host or cells: E. coli BL21(DE3)", "T1 sequence (P29350 1-529 isoform P29350-3)": "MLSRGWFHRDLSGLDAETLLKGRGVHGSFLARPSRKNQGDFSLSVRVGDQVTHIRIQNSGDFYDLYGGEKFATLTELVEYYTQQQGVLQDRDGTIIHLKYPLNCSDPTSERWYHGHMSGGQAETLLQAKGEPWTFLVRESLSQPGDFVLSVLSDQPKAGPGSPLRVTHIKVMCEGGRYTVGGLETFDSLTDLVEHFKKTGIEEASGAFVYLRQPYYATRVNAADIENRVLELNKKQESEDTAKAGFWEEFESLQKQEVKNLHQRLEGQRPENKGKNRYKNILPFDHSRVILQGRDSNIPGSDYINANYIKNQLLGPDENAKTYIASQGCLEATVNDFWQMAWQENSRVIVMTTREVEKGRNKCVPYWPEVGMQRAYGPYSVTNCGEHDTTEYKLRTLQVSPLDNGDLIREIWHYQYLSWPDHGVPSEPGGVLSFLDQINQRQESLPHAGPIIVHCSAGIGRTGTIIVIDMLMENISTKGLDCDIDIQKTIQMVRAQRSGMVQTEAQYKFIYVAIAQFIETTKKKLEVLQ", "assay": "Isothermal titration calorimetry, Shp1 WT", "assay_type": "binding", "method": "(§1) ITC measurements were performed by using a Nano-ITC III (TA instruments, New Castle, DE, USA) with a reaction cell volume of 1 ml kept at 25 °C. A protein solution of 10 μM was titrated into the calorimetric cell with a solution of 50–100 μM of the ligand GroPIns4P (Ins4P) in the syringe. A sequence of 16 injections of 15 μL volume was programmed with a stirring speed of 250 rpm at 500 s intervals. Protein samples were prepared with protein solutions at 25 °C in 20 mM Tris buffer pH 7.4 with 50 mM NaCl and 1 mM TCEP. To minimise the differences in buffer composition and pH between cell and syringe, both ligand and protein solutions were prepared with the same batch of buffer. The heat of dilution of the GroPIns4P into the buffer solution was measured in a separate experiment and appropriate corrections were made. The heat evolved after each ligand injection was obtained from the integral of the calorimetric signal. Raw data were integrated, corrected for non-specific heats and normalized for concentration. The equilibrium dissociation constant (KD), binding enthalpy (ΔbH) and binding stoichiometry (n) were obtained by nonlinear regression of the experimental data using a model of independent binding sites, by means of the NanoAnalyze software. Experiments were performed in duplicate."}, "[1]": {"target": "T2, Shp1 S118A/R138E/S140A mutant (Homo sapiens, UniProt P29350, R136E/S116A/S138A)", "T2 construct": "a tailless-form of Shp1 (residues 1–529) has previously been used [25] and it is used also in this study; 6xHis (N); made in house; host or cells: E. coli BL21(DE3)", "T2 sequence (P29350 1-529 isoform P29350-3 S118A/R138E/S140A)": "T1 sequence (P29350 1-529 isoform P29350-3) with S118A, R138E, S140A", "assay": "Isothermal titration calorimetry, Shp1 S118A/R138E/S140A mutant", "assay_type": "binding", "conditions": "very small heat effect, value not with sufficient confidence", "method": "as §1"}, "NIH3T3 cells": {"test_system": "NIH3T3 cells", "assay": "Immunofluorescence analysis for membrane ruffling", "assay_type": "cell-based", "method": "NIH3T3 and Raw 264.7 cells were cultured in DMEM supplemented with 2 mM L-glutamine, 50 U/mL penicillin, […] streptomycin, and 10% CS or heat-inactivated FBS (30 min at 55 °C), respectively. NIH3T3 cells were transfected with different plasmids using the Lipofectamine LTX/plus reagent according to the manufacturer’s instructions. For immunofluorescence experiments, NIH3T3 cells were seeded onto glass coverslips in 24-well plates at a concentration suitable for 70% confluence without transfection or 50% confluence in the case of Lipofectamine-based cell transfection. In the latter, approximately 24 h after seeding, NIH3T3 cells were transiently transfected with different plasmids with the Lipofectamine LTX/plus reagent following the manufacturer’s instructions. Before treatments, NIH3T3 cells were serum-starved in DMEM with 2 mM glutamine, 50 U/mL penicillin and streptomycin for 16–20 h. The cells were then treated with different stimuli and/or inhibitors, as indicated in the text and/or Figure legends. Addition of exogenous GroPIns4P was at 50 μM (unless otherwise indicated), a concentration eliciting an intracellular concentration of about 1.5 μM, as calculated from the Nernst equation (with T = 300 K, z = − 3, and Veq = − 30 mV, an average value for cultured, non-excitable cells).\nFor ruffle assessment after treatments, immunofluorescence labelling and morphological analysis of the cells were performed as previously described in a double-blind fashion. In brief, the assessment was based on a null score (zero) for the absence of the feature, followed by a score of one or two according to the level of response of each individual cell, where one indicate that ruffling was confined to one area of the cell (< 25% of the cell circumference), and two indicate that two or more discrete areas of the cell contained ruffles. The cell phenotypes were quantified by counting 150 cells in each sample. The data were then expressed as percentage scores (±SD) for each treatment response compared with its respective control. Scoring of the control cells was performed in the same way to evaluate the presence of the features of interest in untreated cells."}}, "note": "Numbering of substitutions follows the chain as printed. pKd: −log10 of the molar value. Where two headings read alike, the source gives them in different places."}
{"smiles": "O=P(O)(O)OC1C(O)C(O)C(OP(=O)(O)OCC(O)CO)C(O)C1O", "note": "(stereo not shown) [GroPIns4P, glycerophosphoinositol 4-phosphate]", "values": [{"measurement": "pKd", "setting": "Shp1; ITC, 25 °C, Shp1 WT, read-out: KD", "value": 6.52}, {"measurement": "pKd", "setting": "Shp1; summary over ITC, Trp fluorescence and SPR competition, read-out: affinity of the binding", "value": "6.10 to 6.52"}, {"measurement": "KD relative to Shp1 WT", "setting": "[1]", "value": "about one order of magnitude higher"}, {"measurement": "increase in peripheral ruffles versus the control", "setting": "NIH3T3 cells; 50 μM GroPIns4P for 5 min", "value": "2.5–3 fold"}, {"measurement": "effect on ruffle formation", "setting": "NIH3T3 cells; cells expressing Shp1 S118A/R138E/S140A, 50 μM GroPIns4P", "value": "significantly inhibited"}, {"measurement": "membrane ruffle formation", "setting": "NIH3T3 cells; cells over-expressing Shp1-C455S, 50 μM GroPIns4P", "value": "did not lead to membrane ruffle formation"}, {"measurement": "actin ruffle formation", "setting": "NIH3T3 cells; cells over-expressing Shp1 S12A/R32E/S34A, 50 μM GroPIns4P", "value": "resulted in the induction of actin ruffles"}]}
